Data from patent US20250041315A1, “LEVONORGESTREL BUTANOATE FORMULATION AND METHODS RELATING THERETO” (The USA, as Represented by the Secretary, Department of …, priority 2021, published 2025).

Key:
[1] = injections at 3-month intervals; cited from earlier work
[2] = Effect of gamma irradiation sterilization on spray dried LNGB particles (colour, qualitative HPLC); assay type: physicochemical
Experimental: In this comparative example, a sample of LNGB particles was prepared using a gamma irradiation step to sterilize spray dried particles. The LNGB particles were obtained by spray drying and then were subjected to gamma irradiation to evaluate the effect of irradiation on the particles. […] Qualitative HPLC was performed to compare the peak profiles of the LNGB particles before and after irradiation. FIGS. 2-5 show HPLC traces of the sample before (FIG. 2) and after (FIGS. 3-5) irradiation. Irradiated samples generated three major peaks, A, D, and E, at >0.15%, as well as a small peak, C, at ˜0.07%. […] In N2- and Ar-purged irradiated samples (FIGS. 4 and 5, respectively), peaks F and G were not resolved from other peaks (either degradation products or gradient artifacts).

CC(=O)O[C@]1(C(C)=O)CC[C@H]2[C@@H]3C[C@H](C)C4=CC(=O)CC[C@]4(C)[C@H]3CC[C@@]21C [DMPA, Depomedroxyprogesterone Acetate]
typical failure rate [1]: 4%

C#C[C@]1(OC(=O)CCC)CC[C@H]2[C@@H]3CCC4=CC(=O)CC[C@@H]4[C@H]3CC[C@@]21CC [LNGB particles, Levonorgestrel butanoate]
major impurity peaks A, D, and E (HPLC) after irradiation ([2]; irradiated samples): > 0.15% | small impurity peak C (HPLC) after irradiation ([2]; irradiated samples): ~0.07% | colour of particles after gamma irradiation ([2]; spray dried particles, gamma irradiated, initial particles white/translucent): yellow color
